Assays:
[1] = target: T1, Estrogen receptor (Homo sapiens, UniProt P03372); format: functional
T1 sequence (P03372 whole entry): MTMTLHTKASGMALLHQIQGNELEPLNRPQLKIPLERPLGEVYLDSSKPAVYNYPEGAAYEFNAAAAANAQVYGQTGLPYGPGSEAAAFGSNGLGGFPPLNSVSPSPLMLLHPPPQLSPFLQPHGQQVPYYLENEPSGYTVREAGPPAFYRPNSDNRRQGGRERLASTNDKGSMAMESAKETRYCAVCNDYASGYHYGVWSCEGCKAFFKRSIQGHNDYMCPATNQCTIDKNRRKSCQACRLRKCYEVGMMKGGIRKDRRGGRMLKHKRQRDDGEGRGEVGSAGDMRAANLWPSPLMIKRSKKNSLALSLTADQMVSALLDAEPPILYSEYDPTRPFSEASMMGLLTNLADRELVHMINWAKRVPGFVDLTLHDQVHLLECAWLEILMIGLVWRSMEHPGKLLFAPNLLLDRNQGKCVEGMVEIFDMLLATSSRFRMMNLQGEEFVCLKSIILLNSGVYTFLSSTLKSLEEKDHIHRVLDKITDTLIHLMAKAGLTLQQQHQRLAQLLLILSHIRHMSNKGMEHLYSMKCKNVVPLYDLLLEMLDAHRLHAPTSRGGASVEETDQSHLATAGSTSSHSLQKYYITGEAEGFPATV

[2] = target: Vascular endothelial growth factor receptor 2 (Homo sapiens, UniProt P35968); format: functional
[3] = target: Hydroxycarboxylic acid receptor 2 (Homo sapiens, UniProt Q8TDS4)
[4] = target: Substance-P receptor (Homo sapiens, UniProt P25103)
[5] = target: T2, Adenosine receptor A1 (Homo sapiens, UniProt P30542)
T2 sequence (P30542 whole entry): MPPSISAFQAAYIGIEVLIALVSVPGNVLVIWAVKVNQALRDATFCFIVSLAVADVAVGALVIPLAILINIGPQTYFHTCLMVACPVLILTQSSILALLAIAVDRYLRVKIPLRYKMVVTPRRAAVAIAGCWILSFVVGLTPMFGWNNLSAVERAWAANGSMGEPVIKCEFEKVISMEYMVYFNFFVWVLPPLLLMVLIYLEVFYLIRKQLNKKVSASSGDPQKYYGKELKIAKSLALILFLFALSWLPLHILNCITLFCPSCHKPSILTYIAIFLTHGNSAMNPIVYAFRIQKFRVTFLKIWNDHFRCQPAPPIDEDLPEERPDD

[6] = target: 5-hydroxytryptamine receptor 7 (Homo sapiens, UniProt P34969)
[7] = target: 5-hydroxytryptamine receptor 6 (Homo sapiens, UniProt P50406)
[8] = target: T3, Alpha-1A adrenergic receptor (Homo sapiens, UniProt P35348)
T3 sequence (P35348 whole entry): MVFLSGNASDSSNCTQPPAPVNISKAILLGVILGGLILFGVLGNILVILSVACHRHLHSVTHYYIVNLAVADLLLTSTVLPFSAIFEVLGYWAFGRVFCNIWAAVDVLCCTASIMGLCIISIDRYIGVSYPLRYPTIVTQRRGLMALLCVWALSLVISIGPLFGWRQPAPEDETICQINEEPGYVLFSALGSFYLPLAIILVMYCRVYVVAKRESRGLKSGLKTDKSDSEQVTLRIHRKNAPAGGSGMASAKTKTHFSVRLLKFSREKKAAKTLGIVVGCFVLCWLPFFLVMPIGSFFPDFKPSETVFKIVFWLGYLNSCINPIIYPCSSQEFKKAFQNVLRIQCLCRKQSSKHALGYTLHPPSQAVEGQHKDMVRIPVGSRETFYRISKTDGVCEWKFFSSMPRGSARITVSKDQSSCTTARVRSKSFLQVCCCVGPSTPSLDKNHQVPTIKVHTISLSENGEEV

[9] = target: T4, Muscarinic acetylcholine receptor M5 (Homo sapiens, UniProt P08912)
T4 sequence (P08912 whole entry): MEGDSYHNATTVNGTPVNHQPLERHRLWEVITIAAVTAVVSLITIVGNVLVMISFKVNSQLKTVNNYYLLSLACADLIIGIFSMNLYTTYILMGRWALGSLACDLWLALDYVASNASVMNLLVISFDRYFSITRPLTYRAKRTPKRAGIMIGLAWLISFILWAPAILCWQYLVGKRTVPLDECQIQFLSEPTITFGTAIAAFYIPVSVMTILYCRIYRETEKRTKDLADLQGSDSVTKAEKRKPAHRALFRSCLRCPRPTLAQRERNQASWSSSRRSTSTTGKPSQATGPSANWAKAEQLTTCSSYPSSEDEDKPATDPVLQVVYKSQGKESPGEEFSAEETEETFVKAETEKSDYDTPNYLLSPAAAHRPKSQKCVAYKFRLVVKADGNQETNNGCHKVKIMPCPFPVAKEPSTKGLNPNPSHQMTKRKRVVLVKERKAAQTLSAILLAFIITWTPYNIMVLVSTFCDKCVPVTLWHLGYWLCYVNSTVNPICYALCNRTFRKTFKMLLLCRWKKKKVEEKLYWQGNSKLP

[10] = target: T5, Oxysterols receptor LXR-alpha (Homo sapiens, UniProt Q13133); format: functional
T5 sequence (Q13133 whole entry): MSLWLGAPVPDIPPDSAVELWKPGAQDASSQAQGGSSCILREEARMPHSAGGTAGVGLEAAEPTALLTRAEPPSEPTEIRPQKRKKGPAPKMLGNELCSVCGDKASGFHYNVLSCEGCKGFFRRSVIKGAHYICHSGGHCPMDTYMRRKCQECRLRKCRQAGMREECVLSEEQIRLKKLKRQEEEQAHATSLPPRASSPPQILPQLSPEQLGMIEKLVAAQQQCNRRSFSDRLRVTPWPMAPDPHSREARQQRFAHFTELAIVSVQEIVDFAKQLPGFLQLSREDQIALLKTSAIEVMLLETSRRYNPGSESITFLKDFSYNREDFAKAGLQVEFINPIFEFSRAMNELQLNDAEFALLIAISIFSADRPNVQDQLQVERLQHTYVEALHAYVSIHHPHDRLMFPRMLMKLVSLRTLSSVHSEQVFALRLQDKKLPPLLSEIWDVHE
Further: assay procedure not described here.

Sequence of 5-hydroxytryptamine receptor 6 (P50406 whole entry): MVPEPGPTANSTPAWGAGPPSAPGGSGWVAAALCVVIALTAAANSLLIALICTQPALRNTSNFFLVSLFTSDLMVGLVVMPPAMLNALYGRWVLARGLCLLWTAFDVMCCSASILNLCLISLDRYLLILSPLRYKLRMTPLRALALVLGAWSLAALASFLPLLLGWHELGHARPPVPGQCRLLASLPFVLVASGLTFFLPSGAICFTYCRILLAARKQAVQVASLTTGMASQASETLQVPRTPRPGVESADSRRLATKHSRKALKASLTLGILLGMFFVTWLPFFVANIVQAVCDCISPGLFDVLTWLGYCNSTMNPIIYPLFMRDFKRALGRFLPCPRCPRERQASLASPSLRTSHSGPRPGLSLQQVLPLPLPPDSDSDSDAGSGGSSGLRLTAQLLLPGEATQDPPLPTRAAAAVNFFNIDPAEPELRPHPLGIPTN
Sequence of Vascular endothelial growth factor receptor 2 (P35968 whole entry): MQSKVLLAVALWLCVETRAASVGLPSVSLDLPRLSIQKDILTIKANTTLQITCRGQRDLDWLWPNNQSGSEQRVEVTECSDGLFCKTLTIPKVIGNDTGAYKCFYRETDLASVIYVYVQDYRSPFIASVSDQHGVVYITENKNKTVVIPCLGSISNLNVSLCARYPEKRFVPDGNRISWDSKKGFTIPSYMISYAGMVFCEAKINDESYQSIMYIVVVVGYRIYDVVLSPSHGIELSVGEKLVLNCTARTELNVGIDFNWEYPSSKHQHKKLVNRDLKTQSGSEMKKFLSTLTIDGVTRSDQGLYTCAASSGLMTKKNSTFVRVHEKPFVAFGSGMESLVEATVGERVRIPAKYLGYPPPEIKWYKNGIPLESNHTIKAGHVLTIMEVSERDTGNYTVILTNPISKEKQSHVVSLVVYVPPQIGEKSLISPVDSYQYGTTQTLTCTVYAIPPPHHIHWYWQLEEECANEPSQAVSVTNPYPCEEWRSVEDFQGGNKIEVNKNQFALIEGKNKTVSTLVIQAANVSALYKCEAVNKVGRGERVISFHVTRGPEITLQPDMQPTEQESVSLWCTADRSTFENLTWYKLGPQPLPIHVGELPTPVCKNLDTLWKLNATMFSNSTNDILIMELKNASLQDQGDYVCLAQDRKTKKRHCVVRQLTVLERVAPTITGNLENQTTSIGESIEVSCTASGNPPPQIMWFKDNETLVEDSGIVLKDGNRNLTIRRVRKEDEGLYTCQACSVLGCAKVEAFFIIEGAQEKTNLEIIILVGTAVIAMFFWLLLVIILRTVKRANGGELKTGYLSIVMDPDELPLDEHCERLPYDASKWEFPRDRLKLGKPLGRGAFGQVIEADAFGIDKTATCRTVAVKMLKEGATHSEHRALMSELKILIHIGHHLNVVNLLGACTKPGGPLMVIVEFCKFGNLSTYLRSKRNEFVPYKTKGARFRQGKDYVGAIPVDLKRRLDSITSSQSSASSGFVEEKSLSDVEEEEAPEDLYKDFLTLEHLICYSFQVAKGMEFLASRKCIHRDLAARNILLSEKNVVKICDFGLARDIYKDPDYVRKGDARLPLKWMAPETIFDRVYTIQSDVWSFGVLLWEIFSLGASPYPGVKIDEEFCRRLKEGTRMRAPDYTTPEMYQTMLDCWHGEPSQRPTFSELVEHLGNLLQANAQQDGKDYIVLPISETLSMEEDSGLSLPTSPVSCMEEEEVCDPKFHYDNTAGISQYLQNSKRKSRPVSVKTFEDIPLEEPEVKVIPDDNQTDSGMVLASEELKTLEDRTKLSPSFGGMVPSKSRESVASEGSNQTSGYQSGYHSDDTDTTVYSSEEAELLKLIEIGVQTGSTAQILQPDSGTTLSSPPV
Sequence of Hydroxycarboxylic acid receptor 2 (Q8TDS4 whole entry): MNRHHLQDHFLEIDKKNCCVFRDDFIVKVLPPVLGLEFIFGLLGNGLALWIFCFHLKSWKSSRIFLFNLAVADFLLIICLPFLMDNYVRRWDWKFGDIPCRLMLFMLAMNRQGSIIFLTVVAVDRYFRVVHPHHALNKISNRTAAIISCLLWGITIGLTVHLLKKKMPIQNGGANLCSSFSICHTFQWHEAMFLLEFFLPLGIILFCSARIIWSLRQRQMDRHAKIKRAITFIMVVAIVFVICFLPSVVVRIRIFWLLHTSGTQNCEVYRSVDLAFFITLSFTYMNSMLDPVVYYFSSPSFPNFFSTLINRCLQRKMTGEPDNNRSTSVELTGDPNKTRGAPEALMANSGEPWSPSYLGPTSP
Sequence of Substance-P receptor (P25103 whole entry): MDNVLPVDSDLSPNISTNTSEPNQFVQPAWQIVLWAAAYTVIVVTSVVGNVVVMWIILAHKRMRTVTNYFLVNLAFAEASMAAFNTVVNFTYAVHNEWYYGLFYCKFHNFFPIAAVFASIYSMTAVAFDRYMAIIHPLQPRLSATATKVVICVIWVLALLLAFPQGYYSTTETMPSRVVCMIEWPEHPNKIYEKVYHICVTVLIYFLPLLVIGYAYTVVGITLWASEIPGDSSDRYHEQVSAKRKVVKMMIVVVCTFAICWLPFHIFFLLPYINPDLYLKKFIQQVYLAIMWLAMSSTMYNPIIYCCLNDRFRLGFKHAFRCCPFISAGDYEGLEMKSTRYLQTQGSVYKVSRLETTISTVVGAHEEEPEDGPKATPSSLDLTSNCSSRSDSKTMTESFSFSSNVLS
Sequence of 5-hydroxytryptamine receptor 7 (P34969 whole entry): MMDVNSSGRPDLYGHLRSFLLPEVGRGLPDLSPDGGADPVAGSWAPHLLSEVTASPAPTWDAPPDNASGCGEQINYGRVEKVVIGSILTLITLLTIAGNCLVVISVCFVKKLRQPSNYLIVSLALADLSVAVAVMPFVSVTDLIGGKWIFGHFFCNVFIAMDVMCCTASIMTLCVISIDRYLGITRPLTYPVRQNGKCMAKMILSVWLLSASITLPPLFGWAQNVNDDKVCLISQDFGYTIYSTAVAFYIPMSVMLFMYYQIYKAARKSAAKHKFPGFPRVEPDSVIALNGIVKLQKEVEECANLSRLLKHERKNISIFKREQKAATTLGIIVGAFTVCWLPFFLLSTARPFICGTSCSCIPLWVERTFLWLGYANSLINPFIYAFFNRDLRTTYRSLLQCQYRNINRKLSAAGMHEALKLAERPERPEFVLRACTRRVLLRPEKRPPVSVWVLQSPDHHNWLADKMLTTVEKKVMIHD

SMILES: CCCN(CCc1cccs1)[C@H]1CCc2c(O)cccc2C1 [ROTIGOTINE]
- AC50 [1]: > 30 µM
- AC50 [2]: > 30 µM

SMILES: CCc1oc2ccccc2c1C(=O)c1cc(Br)c(O)c(Br)c1 [BENZBROMARONE]
- AC50 [1]: > 30 µM

SMILES: Clc1cccc(Cl)c1N=C1NCCN1 [CLONIDINE]
- AC50 [3]: > 10 µM
- AC50 [4]: > 10 µM

SMILES: O=C(Nc1cccc2c(=O)cc(-c3nnn[nH]3)oc12)c1ccc(OCCCCc2ccccc2)cc1
- AC50 [5]: 21.7 µM

SMILES: CC(C)C[C@H](CN)CC(=O)O [PREGABALIN]
- AC50 [1]: > 30 µM
- AC50 [2]: > 30 µM

SMILES: CC1(C)O[C@@H]2[C@@H](CO[C@@]3(COS(N)(=O)=O)OC(C)(C)O[C@@H]23)O1 [TOPIRAMATE]
- AC50 [6]: > 10 µM
- AC50 [7]: > 10 µM
- AC50 [5]: > 30 µM
- AC50 [8]: > 10 µM
- AC50 [9]: > 10 µM
- AC50 [4]: > 10 µM

SMILES: CNCCC=C1c2ccccc2CCc2ccccc21 [NORTRIPTYLINE]
- AC50 [7]: 0.256 µM
- AC50 [9]: 0.262 µM

SMILES: Cc1cnc(NC(=O)C2=C(O)c3ccccc3S(=O)(=O)N2C)s1 [MELOXICAM]
- AC50 [6]: > 10 µM
- AC50 [7]: > 10 µM
- AC50 [8]: > 10 µM
- AC50 [9]: > 10 µM
- AC50 [4]: > 10 µM

SMILES: CN(C)c1cc(CNCC(C)(C)C)c(O)c2c1C[C@H]1C[C@H]3[C@H](N(C)C)C(O)=C(C(N)=O)C(=O)[C@@]3(O)C(O)=C1C2=O [OMADACYCLINE]
- AC50 [5]: > 30 µM
- AC50 [9]: > 30 µM

SMILES: CC[C@H]1OC(=O)[C@H](C)[C@@H](O[C@H]2C[C@@](C)(OC)[C@@H](O)[C@H](C)O2)[C@H](C)[C@@H](O[C@@H]2O[C@H](C)C[C@H](N(C)C)[C@H]2O)[C@](C)(O)C[C@@H](C)/C(=N\OCOCCOC)[C@H](C)[C@@H](O)[C@]1(C)O [ROXITHROMYCIN]
- AC50 [1]: > 30 µM
- AC50 [2]: > 30 µM

SMILES: CNC(=O)c1cc(Oc2ccc(NC(=O)Nc3ccc(Cl)c(C(F)(F)F)c3)c(F)c2)ccn1 [REGORAFENIB]
- AC50 [10]: > 30 µM
- AC50 [5]: > 30 µM

SMILES: CC(=O)S[C@@H]1CC2=CC(=O)CC[C@]2(C)[C@H]2CC[C@@]3(C)[C@@H](CC[C@@]34CCC(=O)O4)[C@H]12 [SPIRONOLACTONE]
- AC50 [3]: > 10 µM
- AC50 [8]: > 10 µM
- AC50 [1]: > 30 µM
- AC50 [2]: > 30 µM
- AC50 [4]: > 10 µM

SMILES: CC(C)(N)C(=O)N[C@H](Cc1c[nH]c2ccccc12)C(=O)N[C@H](Cc1c[nH]c2ccccc12)NC=O [MACIMORELIN]
- AC50 [5]: > 30 µM

SMILES: COC(=O)[C@H](c1ccccc1Cl)N1CCc2sccc2C1 [CLOPIDOGREL]
- AC50 [6]: > 10 µM
- AC50 [7]: > 10 µM
- AC50 [8]: > 10 µM
- AC50 [9]: > 10 µM
- AC50 [1]: > 30 µM
- AC50 [4]: > 10 µM

SMILES: C=C(C)[C@@H]1CCC(C)=C[C@H]1c1c(O)cc(CCCCC)cc1O [CANNABIDIOL]
- AC50 [1]: > 30 µM
- AC50 [2]: > 30 µM

SMILES: CN1CCN(CCCN2c3ccccc3Sc3ccc(S(=O)(=O)N(C)C)cc32)CC1 [THIOPROPERAZINE]
- AC50 [5]: > 30 µM

SMILES: CC(=N)N1CC[C@H](SC2=C(C(=O)O)N3C(=O)[C@H]([C@@H](C)O)[C@H]3C2)C1
- AC50 [1]: 84 µM
- AC50 [2]: > 300 µM

SMILES: CCC(=O)O[C@@H](O[P@](=O)(CCCCc1ccccc1)CC(=O)N1C[C@H](C2CCCCC2)C[C@H]1C(=O)O)C(C)C [FOSINOPRIL]
- AC50 [5]: > 30 µM

SMILES: CCOc1cc(CC(=O)N[C@@H](CC(C)C)c2ccccc2N2CCCCC2)ccc1C(=O)O [REPAGLINIDE]
- AC50 [10]: > 30 µM

SMILES: CCCN(CCC)CCc1cccc2c1CC(=O)N2 [ROPINIROLE]
- AC50 [2]: > 30 µM

SMILES: O=C1NC(=O)C(c2ccccc2)(c2ccccc2)N1 [PHENYTOIN]
- AC50 [2]: > 30 µM

SMILES: CC(/C=C1\SC(=S)N(CC(=O)O)C1=O)=C\c1ccccc1
- AC50 [10]: > 30 µM

SMILES: CC1(C)S[C@@H]2[C@H](NC(=O)[C@H](N)c3ccc(O)cc3)C(=O)N2[C@H]1C(=O)O [AMOXICILLIN]
- AC50 [6]: > 10 µM
- AC50 [7]: > 10 µM
- AC50 [10]: > 30 µM
- AC50 [8]: > 10 µM
- AC50 [9]: > 10 µM
- AC50 [4]: > 10 µM

SMILES: COc1ccnc(C[S+]([O-])c2nc3ccc(OC(F)F)cc3[nH]2)c1OC (configuration not stated) [PANTOPRAZOLE]
- AC50 [3]: > 10 µM
- AC50 [8]: > 10 µM
- AC50 [4]: > 10 µM

SMILES: CNC[C@H](O)c1cccc(O)c1 [PHENYLEPHRINE]
- AC50 [6]: > 10 µM
- AC50 [7]: > 10 µM
- AC50 [9]: > 10 µM
- AC50 [4]: > 10 µM

SMILES: C#Cc1cccc(Nc2ncnc3cc(OCCOC)c(OCCOC)cc23)c1 [ERLOTINIB]
- AC50 [1]: > 30 µM

SMILES: CC1(C)O[C@@H]2C[C@H]3[C@@H]4C[C@H](F)C5=CC(=O)C=C[C@]5(C)[C@H]4[C@@H](O)C[C@]3(C)[C@]2(C(=O)CO)O1 [FLUNISOLIDE]
- AC50 [1]: > 30 µM

SMILES: C[C@H]1Oc2cc(cnc2N)-c2c(nn(C)c2C#N)CN(C)C(=O)c2ccc(F)cc21 [LORLATINIB]
- AC50 [1]: > 30 µM
- AC50 [2]: > 30 µM

SMILES: CCCCNc1ccc(C(=O)OCCN(C)C)cc1 [TETRACAINE]
- AC50 [6]: > 10 µM
- AC50 [7]: > 10 µM
- AC50 [5]: > 30 µM
- AC50 [8]: > 10 µM
- AC50 [9]: > 10 µM
- AC50 [4]: > 10 µM

— ChEMBL document CHEMBL5291721, “A preclinical secondary pharmacology resource illuminates target-adverse drug reaction associations of marketed drugs” (Nat Commun, 2023)
